Measurements: patent US10954567B2, “Mutations associated with resistance to inhibitors of Bruton's Tyrosine Kinase (BTK)” (Pharmacyclics LLC, priority 2012, dated 2021)
Like-named read-outs stand apart in the source and are kept apart here.

Legend:
CLL cells = assay: In vitro stroma-induced CLL proliferation model (BrdU incorporation); type: cell-based, human; details: BTK-mutated (C481S) CLL cells, FIG. 3C, untreated 31%
CML = details: cited from earlier work

## CC[C@H](Nc1ncnc2[nH]cnc12)c1nc2cccc(F)c2c(=O)n1-c1ccccc1 [GS-1101]
CLL cells
  proliferation: 14%

## Cc1cccc(Nc2nc(N[C@@H]3CCCC[C@@H]3N)ncc2C(N)=O)c1 [PRT060318]
CLL cells
  proliferation (in words): complete inhibition of proliferation

## CCS(=O)(=O)N1CCN(c2ccc(Nc3ncc(C(N)=O)c(NC4CC4)n3)cc2)CC1 [PRT062070]
CLL cells
  proliferation (in words): complete inhibition of proliferation

## Cc1ccc(NC(=O)c2ccc(CN3CCN(C)CC3)cc2)cc1Nc1nccc(-c2cccnc2)n1 [imatinib]
CML; advanced CML
  patients who relapse: 66%
CML; chronic CML, within the first few years
  patients who relapse: 5%

## C[C@@H]1CCN(C(=O)CC#N)C[C@@H]1N(C)c1ncnc2[nH]ccc12 [tofacitinib]
CLL cells
  proliferation: 21%
